The values that follow come from patent US11629133B2, “Perfluoroaminoolefins and methods of making and using the same” (3M INNOVATIVE PROPERTIES COMPANY, priority 2018, dated 2023).

Type in all cases: physicochemical
Data set [1] is described as follows: Pour point, determined visually. The settings on record: lowest temperature at which sample flows within 5 sec held horizontally. As for the experimental part: […] of the sample was placed in a vial and cooled in a liquid nitrogen-cooled pentane bath until it solidified. The sample was then allowed to warm slowly in the pentane bath by removal of the liquid nitrogen cooling source (typically an increase of 1-2° C./minute) and observed every 3-5° C.

Data set [2] in a line: Thermal stability of PE-1 with absorbents, purity by GC-FID. The protocol: GC-FID analysis was carried out on an Agilent Technologies 7890B GC System (Santa Clara Calif.) equipped with a Restek RtX-200 gas chromatography column (Bellefonte, Pa.) and helium carrier gas. Once material was injected into the column, the following temperature sequence was executed: 5 min hold at 40° C., 10° C./minute temperature increase over the span of 21 min to reach a final temperature of 250° C., and then a 15 min hold at 250° C. Data analysis by use of Agilent Open LAB CDSA ChemStation software enabled the determination of product purities and GC yields.
Thermal stability was measured by charging 1.0 g of PE-1 into glass vials and then adding a weighed amount of absorbent. The samples were stirred for 24 hours at 60° C., allowed to cool, and then analyzed by GC-FID for decomposition and purity changes.

The nature of data set [3]: Dielectric constant per ASTM D150-11. The settings on record: measured at 1 kHz. As for the experimental part:
The dielectric constant (tested per ASTM D150-11) of PE-1 was measured. The dielectric constant measured at 1 kHz was 1.98.

In turn, “2,2,3,3,4,4,5,5-octafluoro-1-(perfluoropent-2-en-3-yl)pyrrolidine and 2,2,3,3,4,4,5,5-octafluoro-1-(perfluoropent-2-en-2-yl)pyrrolidine [PE-4]” displayed a Pour point in data set [1] of −90 °C.

In data set [1], `FC1=C(N2C(F)(F)C(F)(F)C(F)(F)C2(F)F)C(F)(F)C(F)(F)C(F)(F)C1(F)F` [PE-1, 2,2,3,3,4,4,5,5-octafluoro-1-(perfluorocyclohex-1-en-1-yl)pyrrolidine] gave a Pour point of −34 °C. Moreover, the “Purity, %” value in data set [2] (4 Angstrom Molecular Sieves, stirred 24 hours at 60° C.) amounted to 97.3%; in data set [2] (Activated Carbon, stirred 24 hours at 60° C.), 97.7%; in data set [2] (Basic Alumina, stirred 24 hours at 60° C.) it was 97.6%; in data set [2] (K2CO3, stirred 24 hours at 60° C.), 97.6%; in data set [2] (No Absorbent, stirred 24 hours at 60° C.) it was 97.7%; in data set [2] (Silica Gel, stirred 24 hours at 60° C.) it was 97.7%. In addition, the dielectric constant in data set [3] worked out at 1.98.

On to `FC1=C(N2C(F)(F)C(F)(F)C(F)(F)C2(F)F)C(F)(F)C(F)(F)C1(F)F` [PE-2, 2,2,3,3,4,4,5,5-octafluoro-1-(perfluorocyclopent-1-en-1-yl)pyrrolidine], for which, in data set [1], the Pour point was −33 °C.

`FC1=C(N2C(F)(F)C(F)(F)OC(F)(F)C2(F)F)C(F)(F)C(F)(F)C1(F)F` [PE-3, 2,2,3,3,5,5,6,6-octafluoro-4-(perfluorocyclopent-1-en-1-yl)morpholine] yielded a Pour point in data set [1] of −49 °C.
